# Test system: TNF-α
# Test: TNF-α inhibition in LPS-activated THP-1 cells (Human TNF-α ELISA of supernatants)
# Assay type: cell-based
# Details: PMA-differentiated THP-1 cells activated with 50 ng/mL LPS, 4 h, mean ± SEM of triplicate
# Description: THP-1 cells (Human monocytic leukemia cells) were obtained from Biobank facility, ICCBS, University of Karachi, which was purchased from the ECACC (European Collection of Cell Cultures, UK). The cells were cultured in RPMI-1640, supplemented with 10% FBS (fetal bovine serum), 50 µmol/L mercaptoethanol (Merck, Damstadt, Germany), 5.5 mmol/L glucose (BioM Laboratories, Chemical Division, Malaysia), 2 mmol/L; L-glutamine (PAA Laboratories, GmbH, Pasching, Austria), 10 mmol/L HEPES (MP Biomedicals, lLLKIRCH, France) and 1 mmol/L sodium pyruvate (GIBCO, Grand Island, NY, USA). Cells were harvested and 2 × 10^5 cells/mL were then added to 24-well tissue culture plates. Differentiation of cells was performed by adding 20 ng/mL of phorbol myristate acetate (PMA) (SERVA, Heidelberg, Germany), and by incubation at 37 °C for 24 h in 5% CO2. […] The supernatants were analyzed for the level of TNF-α using Human TNF-α ELISA Kit (R&D Systems, Minneapolis, USA).
# Briefly the working concentration of 4 μg/mL in PBS from 720 μg/mL of mouse anti-human TNF-α capture antibodies were used for coating of 96 well ELISA plate. […] The reaction was stopped by adding 50 μL of stop solution (2 N H2SO4) and plate was then read at wavelength of 450 nm in ELISA reader (ELX800 NB, DIA LAB, Wr. Neudrof, Austria).
compound,measurement,value
CC(=O)CCCCn1c(=O)c2c(ncn2C)n(C)c1=O [Pentoxifylline],IC50,341 ± 7.54 µM

# Source: article PMC7708426, “Identification of potential TNF-α inhibitors: from in silico to in vitro studies” (Scientific Reports, 2020)
